According to US9120795B2, “Crystalline form of a β-lactamase inhibitor” (Cubist Pharmaceuticals, Inc., priority 2013, dated 2015):

Assay: Solid form stability at ambient conditions, XRPD
Format: physicochemical
Conditions: sulfate; for transformation of the form at ambient conditions: storage at ambient conditions
Method: X-Ray Powder Diffraction patterns were collected on a Bruker D8 diffractometer using Cu Kα radiation (40 kV, 40 mA), 0-20 goniometer, and divergence of V4 and receiving slits, a Ge monochromator and a Lynxeye detector. The instrument is performance checked using a certified Corundum standard (NIST 1976). The software used for data collection was Diffrac Plus XRD Commander v2.6.1 and the data were analysed and presented using Diffrac Plus EVA v13.0.0.2 or v15.0.0.0. Samples were run under ambient conditions as flat plate specimens using powder as received. The sample was gently packed into a cavity cut into polished, zero-background (510) silicon wafer. The sample was rotated in its own plane during analysis. The details of the data collection are: angular range: 2 to 42 °2θ; step size: 0.05 °2θ; collection time: 0.5 s/step. Amorphous material (˜60 mg) was generated as in Procedure 1. The amorphous material was suspended in different solvent systems (3 mL) at 50° C. A sample was withdrawn after 3 h and 24 h. The final product was filtered after 48 h and analysed by XRPD. The solids isolated were re-analysed again by XRPD after few days at ambient conditions (˜25° C. and ˜40% RH).

Row | Compound | stability of the form (Summary of Forms, Description) | transformation of the form at ambient conditions
1 | O=C1N2C[C@@H](CC[C@H]2c2nnco2)N1OS(=O)(=O)[O-].[Na+] [Hydrate 5, sodium (2S,5R)-2-(1,3,4-oxadiazol-2-yl)-7-oxo-1,6-diazabicyclo[3.2.1]octan-6-yl sulfate] | Metastable, di-hydrate | 
2 | O=C1N2C[C@@H](CC[C@H]2c2nnco2)N1OS(=O)(=O)[O-].[Na+] [Hydrate 7, sodium (2S,5R)-2-(1,3,4-oxadiazol-2-yl)-7-oxo-1,6-diazabicyclo[3.2.1]octan-6-yl sulfate] | Metastable, only isolated as a mixture | 
3 | O=C1N2C[C@@H](CC[C@H]2c2nnco2)N1OS(=O)(=O)[O-].[Na+] [Hydrate 6, sodium (2S,5R)-2-(1,3,4-oxadiazol-2-yl)-7-oxo-1,6-diazabicyclo[3.2.1]octan-6-yl sulfate] | Metastable, suspected mono-hydrate, | metastable and transform to Hydrate 5 or Hydrate 1
4 | O=C1N2C[C@@H](CC[C@H]2c2nnco2)N1OS(=O)(=O)[O-].[Na+] [Hydrate 2, sodium (2S,5R)-2-(1,3,4-oxadiazol-2-yl)-7-oxo-1,6-diazabicyclo[3.2.1]octan-6-yl sulfate] | Metastable, hexa-hydrate | 
5 | O=C1N2C[C@@H](CC[C@H]2c2nnco2)N1OS(=O)(=O)[O-].[Na+] [Hydrate 3, sodium (2S,5R)-2-(1,3,4-oxadiazol-2-yl)-7-oxo-1,6-diazabicyclo[3.2.1]octan-6-yl sulfate] | Metastable, suspected mono-hydrate | metastable and transform to Hydrate 5 or Hydrate 1
6 | O=C1N2C[C@@H](CC[C@H]2c2nnco2)N1OS(=O)(=O)[O-].[Na+] [Hydrate 4, sodium (2S,5R)-2-(1,3,4-oxadiazol-2-yl)-7-oxo-1,6-diazabicyclo[3.2.1]octan-6-yl sulfate] | Metastable, suspected hemi-hydrate | metastable and transforms to Hydrate 1
